Assay [1] deals with ICAM-1 and P-selectin on HUVEC. Description: Immunofluorescence staining of HUVEC after T cell-rolling. To be noted: T cells pre-incubated with 10 ng/ml Blinatumomab vs untouched T cells. The assay is classed as cell-based, human. As for the experimental part:
After rolling and adhesion of T cells on HBMEC or HUVEC under flow conditions, endothelial cells were fixed using 150 μl of 4% paraformaldehyde solution (#P-6148, Sigma-Aldrich) for 30 min at 4° C. μ-slides were rinsed with 150 μl of D-PBS and subjected to immunofluorescence staining. HBMEC were first blocked with 150 μl of avidin blocking reagent (#PHA-70871, reagent 1, Dianova) for 10 min at room temperature, washed with 150 μl of D-PBS followed by incubation with 150 μl of biotin blocking reagent (#PHA-70871, reagent 2, Dianova). All following staining procedures were performed in 150 μl of D-PBS with 5% FBS at room temperature in the dark, and washing steps were done in 150 μl of D-PBS. μ-slides were incubated with 5 μg/ml polyclonal rabbit anti-human VCAM-1 (#106777, abcam) for 1 h. After washing, 20 μg/ml goat anti-rabbit IgG-DyLight350 was added for 1 h followed by washing and incubation with 15 μg/ml mouse anti-human P-selectin IgG1 (#BBA30, R&D Systems) for 2 h. After washing, goat anti-mouse IgG-Alexa488 (1:100) (#A10680, Invitrogen) was added for 1 h. […] VCAM-1 staining was monitored with a CFL EPI-FL Filter Block UV-2A (#MBE41200, Nikon), P-selectin staining with a CFL EPI-FL Filter Block GFP-B (#MBE44740, Nikon), and ICAM-1 staining with an EPI-FL Filter Block Cy3 (#MXU96213, Nikon). […]

For another assay, the system named is recombinant human ICAM-1. In words: Flow chamber: T cell-rolling on recombinant ICAM-1, semi short-term conditions. The class given is cell-based. To be noted: freshly isolated T cells, +AMG 103 10 ng/ml, t=45 min; coated at 12.5 μg/ml, with blocking; control −AMG 103 383±144. How it is done:
(§1) Recombinant proteins (rhICAM-1 #ADP4-050, rhVCAM-1 #ADP5-050 or rhP-selectin #ADP3-050, R&D Systems) were dissolved in ddH2O according to the manufacturer's instructions. Prior to rolling experiments recombinant proteins were diluted in Dulbecco's PBS with Ca^2+ and Mg^2+ (#L1815, Biochrom) and coated onto a μ-slide VI^0.4 Luer ibiTreat (#80606, ibidi) over night at 4° C. Before usage slides were washed three times with Dulbecco's PBS and blocked where indicated with 20% FBS (#10270, Gibco) in PBS for 2 h at room temperature. Blocking solution was replaced by RPMI 1640 medium (#FG1215, Biochrom) without supplements.
(§2) Isolation and characterization of human peripheral blood mononuclear cells (PBMC) and T cells from blood were performed as described in Example 2 (p. 48, 1-31).
(§3) For rolling experiments using freshly isolated T cells, these cells were resuspended in RPMI 1640 medium (#FG1215, Biochrom) without supplements to a final concentration of 1×10^6 cells/ml at the start of the experiment (t=0 min; addition of 10 ng/ml Blinatumomab (AMG 103)) and incubated for 35 min at 37° C. and 5% CO2. Cells were then filled in a perfusion set “white” (#10963, ibidi) which was connected to both a fluidic unit and the μ-slide and image sequences of 45 sec duration were recorded at t=40 min, 45 min, and 50 min as described in Example 2 (p. 50, 18-23). […]

For the next assay, the system named is recombinant human VCAM-1. Description: Flow chamber: T cell-rolling on recombinant VCAM-1, semi short-term conditions. The assay is classed as cell-based. The note with it: freshly isolated T cells. As for the experimental part: as §1, §2, §3

Regarding “Blinatumomab: recombinant CD19×CD3 bispecific scFv antibody consisting of four immunoglobulin variable domains assembled into a single polypeptide chain”, the “surface expression of adhesion molecules on HUVEC” value in assay [1] was “increased surface expression of adhesion molecules ICAM-1 and P-selectin”. Also, the “mean T cell-rolling velocity±SD” value was determined as 314±79 μm/sec in the assay on recombinant human ICAM-1; 205±45 μm/sec in the assay on recombinant human VCAM-1 (+AMG 103 10 ng/ml with vehicle DMSO, t=40 min, coated at 20 μg/ml, control −AMG 103 259±35); 353±72 μm/sec in the assay with recombinant human VCAM-1 (+AMG 103 10 ng/ml, t=45 min, coated at 10 μg/ml, with blocking, control −AMG 103 418±136).

Source of the values: patent US9688760B2, “Anti-leukocyte adhesion for the mitigation of potential adverse events caused by CD3-specific binding domains” (AMGEN RESEARCH (MUNICH) GMBH, priority 2013, dated 2017).
